PubChem BioAssay AID2060502 (Molecular Pharmacology Branch, DTP, NCI, 2025)
One block for each molecule: values may come before it.

Test system: 885724-159-R-J1-PDC complex spheroid viability
Test: Anticancer human tumor 885724-159-R-J1-PDC patient-derived pancreatic adenocarcinoma cell line growth inhibition [GQUAD]
Settings: for IC50: curve of first compound; for viability, T/C: stronger effect = lower value
Method in brief: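 Multi-cell-type spheroids of tumor cells with HUVEC and mesenchymal stem cells, treated with drug combinations. Concentrations descend in half-log steps from near clinical Cmax, or from 10 microM where Cmax is unknown; viability read-out.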

[1] = second compound 0.0316 µM, first compound 0.0316 µM
[2] = second compound 0.0316 µM, first compound 0.1 µM
[3] = second compound 0.0316 µM, first compound 0.316 µM
[4] = second compound 0.0316 µM, first compound 1 µM
[5] = second compound 0.0316 µM, first compound 3.16 µM
[6] = second compound 0.0316 µM, first compound 10 µM
[7] = second compound 0.1 µM, first compound 0.0316 µM
[8] = second compound 0.1 µM, first compound 0.1 µM
[9] = second compound 0.1 µM, first compound 0.316 µM
[10] = second compound 0.1 µM, first compound 1 µM
[11] = second compound 0.1 µM, first compound 3.16 µM
[12] = second compound 0.1 µM, first compound 10 µM
[13] = second compound 0.316 µM, first compound 0.0316 µM
[14] = second compound 0.316 µM, first compound 0.1 µM
[15] = second compound 0.316 µM, first compound 0.316 µM
[16] = second compound 0.316 µM, first compound 1 µM
[17] = second compound 0.316 µM, first compound 3.16 µM
[18] = second compound 0.316 µM, first compound 10 µM
[19] = second compound 1 µM, first compound 0.0316 µM
[20] = second compound 1 µM, first compound 0.1 µM
[21] = second compound 1 µM, first compound 0.316 µM
[22] = second compound 1 µM, first compound 1 µM
[23] = second compound 1 µM, first compound 3.16 µM
[24] = second compound 1 µM, first compound 10 µM
[25] = second compound 3.16 µM, first compound 0.0316 µM
[26] = second compound 3.16 µM, first compound 0.1 µM
[27] = second compound 3.16 µM, first compound 0.316 µM
[28] = second compound 3.16 µM, first compound 1 µM
[29] = second compound 3.16 µM, first compound 3.16 µM
[30] = second compound 3.16 µM, first compound 10 µM
[31] = second compound 10 µM, first compound 0.0316 µM
[32] = second compound 10 µM, first compound 0.1 µM
[33] = second compound 10 µM, first compound 0.316 µM
[34] = second compound 10 µM, first compound 1 µM
[35] = second compound 10 µM, first compound 3.16 µM
[36] = second compound 10 µM, first compound 10 µM
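Also: spheroids exposed to agents for seven days before readout.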
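For viability, T/C in this document: percent of vehicle control viability where 100% = DMSO wells.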

IC50 (second compound 0.0316 µM): > 10 µM
IC50 (second compound 0.1 µM): > 10 µM
IC50 (second compound 0.316 µM): > 10 µM
IC50 (second compound 1 µM): > 10 µM
IC50 (second compound 3.16 µM): > 10 µM
IC50 (second compound 10 µM): > 10 µM
Structure (SMILES): CCCS(=O)(=O)Nc1ccc(F)c(C(=O)c2c[nH]c3ncc(-c4ccc(Cl)cc4)cc23)c1F + Cc1cnc(CNC(=O)c2c(=O)c3ccc(N4CCCN(C)CC4)nc3n3c2sc2ccccc23)cn1
viability, T/C [1]: 95%
viability, T/C [2]: 106%
viability, T/C [3]: 113%
viability, T/C [4]: 141%
viability, T/C [5]: 126%
viability, T/C [6]: 74%
viability, T/C [7]: 124%
viability, T/C [8]: 128%
viability, T/C [9]: 116%
viability, T/C [10]: 135%
viability, T/C [11]: 128%
viability, T/C [12]: 83%
viability, T/C [13]: 94%
viability, T/C [14]: 103%
viability, T/C [15]: 96.3%
viability, T/C [16]: 98%
viability, T/C [17]: 102%
viability, T/C [18]: 72.2%
viability, T/C [19]: 97.6%
viability, T/C [20]: 84.6%
viability, T/C [21]: 96%
viability, T/C [22]: 96.7%
viability, T/C [23]: 115%
viability, T/C [24]: 70.6%
viability, T/C [25]: 76.7%
viability, T/C [26]: 75.2%
viability, T/C [27]: 78.8%
viability, T/C [28]: 80.3%
viability, T/C [29]: 91.6%
viability, T/C [30]: 58.7%
viability, T/C [31]: 62.8%
viability, T/C [32]: 71.2%
viability, T/C [33]: 61.1%
viability, T/C [34]: 73.4%
viability, T/C [35]: 76%
viability, T/C [36]: 50.2%

IC50 (second compound 0.0316 µM): > 10 µM
IC50 (second compound 0.1 µM): > 10 µM
IC50 (second compound 0.316 µM): > 10 µM
IC50 (second compound 1 µM): > 10 µM
IC50 (second compound 3.16 µM): > 10 µM
IC50 (second compound 10 µM): > 10 µM
Structure (SMILES): COc1ncnc(C2CC2)c1-c1ncc2cnn(Cc3ccc(-c4nc(C(F)(F)F)cn4C(C)C)cc3)c2n1 + Cc1cnc(CNC(=O)c2c(=O)c3ccc(N4CCCN(C)CC4)nc3n3c2sc2ccccc23)cn1
viability, T/C [1]: 113%
viability, T/C [2]: 106%
viability, T/C [3]: 103%
viability, T/C [4]: 114%
viability, T/C [5]: 115%
viability, T/C [6]: 118%
viability, T/C [7]: 117%
viability, T/C [8]: 114%
viability, T/C [9]: 111%
viability, T/C [10]: 103%
viability, T/C [11]: 112%
viability, T/C [12]: 109%
viability, T/C [13]: 97.5%
viability, T/C [14]: 97.4%
viability, T/C [15]: 92.4%
viability, T/C [16]: 98.5%
viability, T/C [17]: 110%
viability, T/C [18]: 106%
viability, T/C [19]: 95.1%
viability, T/C [20]: 90.8%
viability, T/C [21]: 93.6%
viability, T/C [22]: 87.5%
viability, T/C [23]: 99.3%
viability, T/C [24]: 87.3%
viability, T/C [25]: 76.4%
viability, T/C [26]: 73.6%
viability, T/C [27]: 73.2%
viability, T/C [28]: 72.7%
viability, T/C [29]: 82.5%
viability, T/C [30]: 79.5%
viability, T/C [31]: 69.5%
viability, T/C [32]: 69.5%
viability, T/C [33]: 61.8%
viability, T/C [34]: 66.5%
viability, T/C [35]: 76.7%
viability, T/C [36]: 75.8%

IC50 (second compound 0.0316 µM): 0.291 µM
IC50 (second compound 0.1 µM): 0.241 µM
IC50 (second compound 0.316 µM): 0.193 µM
IC50 (second compound 1 µM): 0.137 µM
IC50 (second compound 3.16 µM): 0.0935 µM
IC50 (second compound 10 µM): 0.0238 µM
Structure (SMILES): Cc1[nH]c2ccccc2c1CCNCc1ccc(/C=C/C(=O)NO)cc1 + Cc1cnc(CNC(=O)c2c(=O)c3ccc(N4CCCN(C)CC4)nc3n3c2sc2ccccc23)cn1
viability, T/C (second compound 0.0316 µM, first compound 0.000999 µM): 111%
viability, T/C (second compound 0.0316 µM, first compound 0.00316 µM): 103%
viability, T/C (second compound 0.0316 µM, first compound 0.00999 µM): 89.7%
viability, T/C [1]: 95.4%
viability, T/C (second compound 0.0316 µM, first compound 0.0999 µM): 97.5%
viability, T/C [3]: 46.4%
viability, T/C (second compound 0.1 µM, first compound 0.000999 µM): 100%
viability, T/C (second compound 0.1 µM, first compound 0.00316 µM): 114%
viability, T/C (second compound 0.1 µM, first compound 0.00999 µM): 117%
viability, T/C [7]: 98.8%
viability, T/C (second compound 0.1 µM, first compound 0.0999 µM): 67.2%
viability, T/C [9]: 44.7%
viability, T/C (second compound 0.316 µM, first compound 0.000999 µM): 107%
viability, T/C (second compound 0.316 µM, first compound 0.00316 µM): 103%
viability, T/C (second compound 0.316 µM, first compound 0.00999 µM): 102%
viability, T/C [13]: 83.1%
viability, T/C (second compound 0.316 µM, first compound 0.0999 µM): 72.8%
viability, T/C [15]: 34.5%
viability, T/C (second compound 1 µM, first compound 0.000999 µM): 90%
viability, T/C (second compound 1 µM, first compound 0.00316 µM): 78.6%
viability, T/C (second compound 1 µM, first compound 0.00999 µM): 75.8%
viability, T/C [19]: 71.5%
viability, T/C (second compound 1 µM, first compound 0.0999 µM): 53.5%
viability, T/C [21]: 37%
viability, T/C (second compound 3.16 µM, first compound 0.000999 µM): 79.3%
viability, T/C (second compound 3.16 µM, first compound 0.00316 µM): 72.5%
viability, T/C (second compound 3.16 µM, first compound 0.00999 µM): 68%
viability, T/C [25]: 63.6%
viability, T/C (second compound 3.16 µM, first compound 0.0999 µM): 49.3%
viability, T/C [27]: 30.6%
viability, T/C (second compound 10 µM, first compound 0.000999 µM): 69.1%
viability, T/C (second compound 10 µM, first compound 0.00316 µM): 73.7%
viability, T/C (second compound 10 µM, first compound 0.00999 µM): 56.9%
viability, T/C [31]: 46.1%
viability, T/C (second compound 10 µM, first compound 0.0999 µM): 35.4%
viability, T/C [33]: 23.8%
